According to US9944602B2, “Piperidinone herbicides” (E. I. DU PONT DE NEMOURS AND COMPANY, priority 2014, dated 2018):

Key:
Format in all cases: in vivo
[1] = test system: foxtail, giant (giant foxtail, Setaria faberii); experiment: Test A preemergence foxtail, giant; conditions: Setaria faberi, pre-emergence, 240 h, 0 to 100 scale, 0 no effect, 100 complete control, read-out: Foxtail, Giant plant response rating
Method in brief: (§1)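 Visual injury rating, 0–100 scale (0 = no effect, 100 = complete control), versus untreated controls ~10 d after treatment in greenhouse. Pre: directed soil spray onto seeded loam/sand. Post: foliar spray at 2–10 cm, 1–2 leaf stage. Solvent-surfactant formulation.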

[2] = test system: barnyardgrass (Echinochloa crus-galli); experiment: Test B flooded paddy test barnyardgrass; conditions: Echinochloa crus-galli, Table B, Flood, scale 0 to 100, read-out: Plant response rating
Method in brief: (§2)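 Water-applied paddy treatment: compound dosed into 3 cm flood on 2-leaf plants, read visually versus controls after 13 to 15 d.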

[3] = test system: ducksalad (Heteranthera limosa); experiment: Test B flooded paddy test ducksalad; conditions: Heteranthera limosa, Table B, Flood, scale 0 to 100, read-out: Plant response rating
Method in brief: as §2

[4] = test system: wheat (Triticum aestivum); experiment: Test A postemergence wheat; conditions: Triticum aestivum, post-emergence, 240 h, 0 to 100 scale, 0 is no effect, 100 is complete control, read-out: Plant response rating, Wheat
Method in brief: as §1

[5] = test system: kochia (Kochia scoparia); experiment: Test A postemergence kochia; conditions: Bassia scoparia, post-emergence, 240 h, 0 to 100 scale, 0 is no effect, 100 is complete control, read-out: Plant response rating, Kochia
Method in brief: as §1

[6] = test system: foxtail, giant (giant foxtail, Setaria faberii); experiment: Test A postemergence foxtail, giant; conditions: Setaria faberi, post-emergence, 240 h, 0 to 100 scale, 0 is no effect, 100 is complete control, read-out: Plant response rating, Foxtail, Giant
Method in brief: as §1

[7] = test system: sedge, umbrella (small-flower umbrella sedge, Cyperus difformis); experiment: Test B flooded paddy test sedge, umbrella; conditions: Cyperus difformis, Table B, Flood, scale 0 to 100, read-out: Plant response rating
Method in brief: as §2

[8] = test system: blackgrass (Alopecurus myosuroides); experiment: Test A postemergence blackgrass; conditions: Alopecurus myosuroides, post-emergence, 240 h, 0 to 100 scale, 0 is no effect, 100 is complete control, read-out: Plant response rating, Blackgrass
Method in brief: as §1

[9] = test system: barnyardgrass (Echinochloa crus-galli); experiment: Test A preemergence barnyardgrass; conditions: 0 to 100 scale
Method in brief: as §1

[10] = test system: galium (catchweed bedstraw, Galium aparine); experiment: Test A postemergence galium; conditions: Galium, post-emergence, 240 h, 0 to 100 scale, 0 is no effect, 100 is complete control, read-out: Plant response rating, Galium
Method in brief: as §1

[11] = test system: ryegrass, Italian (Italian ryegrass, Lolium multiflorum); experiment: Test A preemergence ryegrass, Italian; conditions: Lolium multiflorum, pre-emergence, 240 h, 0 to 100 scale, 0 no effect, 100 complete control, read-out: Ryegrass, Italian plant response rating
Method in brief: as §1

[12] = test system: pigweed (Amaranthus retroflexus); experiment: Test A postemergence pigweed; conditions: Amaranthus retroflexus, post-emergence, 240 h, 0 to 100 scale, 0 is no effect, 100 is complete control, read-out: Plant response rating, Pigweed
Method in brief: as §1

[13] = test system: ragweed (common ragweed, Ambrosia elatior); experiment: Test A preemergence ragweed; conditions: Ambrosia artemisiifolia, pre-emergence, 240 h, 0 to 100 scale, 0 no effect, 100 complete control, read-out: Ragweed plant response rating
Method in brief: as §1

[14] = test system: corn (Zea mays); experiment: Test A postemergence corn; conditions: Zea mays, post-emergence, 240 h, 0 to 100 scale, 0 is no effect, 100 is complete control
Method in brief: as §1

[15] = test system: ryegrass, Italian (Italian ryegrass, Lolium multiflorum); experiment: Test A postemergence ryegrass, Italian; conditions: Lolium multiflorum, post-emergence, 240 h, 0 to 100 scale, 0 is no effect, 100 is complete control, read-out: Plant response rating, Ryegrass, Italian
Method in brief: as §1

[16] = test system: barnyardgrass (Echinochloa crus-galli); experiment: Test A postemergence barnyardgrass; conditions: Echinochloa crus-galli, post-emergence, 240 h, 0 to 100 scale, 0 is no effect, 100 is complete control, read-out: Plant response rating, Barnyardgrass
Method in brief: as §1

[17] = test system: kochia (Kochia scoparia); experiment: Test A preemergence kochia; conditions: Bassia scoparia, pre-emergence, 240 h, 0 to 100 scale, 0 no effect, 100 complete control, read-out: Kochia plant response rating
Method in brief: as §1

[18] = test system: pigweed (Amaranthus retroflexus); experiment: Test A preemergence pigweed; conditions: Amaranthus retroflexus, pre-emergence, 240 h, 0 to 100 scale, 0 no effect, 100 complete control, read-out: Pigweed plant response rating
Method in brief: as §1

[19] = test system: rice (Oryza sativa); experiment: Test B flooded paddy test rice; conditions: Oryza sativa, Table B, Flood, scale 0 to 100, read-out: Plant response rating
Method in brief: as §2

[20] = test system: ragweed (common ragweed, Ambrosia elatior); experiment: Test A postemergence ragweed; conditions: Ambrosia artemisiifolia, post-emergence, 240 h, 0 to 100 scale, 0 is no effect, 100 is complete control, read-out: Plant response rating, Ragweed
Method in brief: as §1

O=C1NCCC(c2ccc(C(F)(F)F)cc2)C1C(=O)Nc1ccccc1Cl (stereo not shown) [Compound 13, N-(2-chlorophenyl)-2-oxo-4-[4-(trifluoromethyl)phenyl]-3-piperidinecarboxamide]
pest or weed control at 125 g/ha ([1]; 125 g ai/ha): 70% | pest or weed control at 500 g/ha ([1]; 500 g ai/ha): 90% | pest or weed control at 250 g/ha ([2]; 250 g ai/ha): 0% | pest or weed control at 1000 g/ha ([2]; 1000 g ai/ha): 40% | pest or weed control at 250 g/ha ([3]; 250 g ai/ha): 70% | pest or weed control at 1000 g/ha ([3]; 1000 g ai/ha): 100% | plant injury at 125 g/ha ([4]; 125 g ai/ha): 0% | plant injury at 500 g/ha ([4]; 500 g ai/ha): 0% | pest or weed control at 125 g/ha ([5]; 125 g ai/ha): 0% | pest or weed control at 500 g/ha ([5]; 500 g ai/ha): 0% | pest or weed control at 125 g/ha ([6]; 125 g ai/ha): 30% | pest or weed control at 500 g/ha ([6]; 500 g ai/ha): 90% | pest or weed control at 250 g/ha ([7]; 250 g ai/ha): 0% | pest or weed control at 1000 g/ha ([7]; 1000 g ai/ha): 0% | pest or weed control at 125 g/ha ([8]; 125 g ai/ha): 0% | pest or weed control at 500 g/ha ([8]; 500 g ai/ha): 0% | Plant response rating, Barnyardgrass ([9]; 500 g ai/ha, 0 is no effect, 100 is complete control): 70 | pest or weed control at 125 g/ha ([9]; Echinochloa crus-galli, pre-emergence, 240 h, 125 g ai/ha, 0 no effect, 100 complete control, read-out: Barnyardgrass plant response rating): 40% | pest or weed control at 125 g/ha ([10]; 125 g ai/ha): 0% | pest or weed control at 500 g/ha ([10]; 500 g ai/ha): 0% | pest or weed control at 125 g/ha ([11]; 125 g ai/ha): 0% | pest or weed control at 500 g/ha ([11]; 500 g ai/ha): 0% | pest or weed control at 125 g/ha ([12]; 125 g ai/ha): 0% | pest or weed control at 500 g/ha ([12]; 500 g ai/ha): 0% | pest or weed control at 125 g/ha ([13]; 125 g ai/ha): 0% | pest or weed control at 500 g/ha ([13]; 500 g ai/ha): 0% | Corn plant response rating (crop injury, 0 = no effect, 100 = complete kill) at 125 g/ha ([14]; 125 g ai/ha): 0% | Corn plant response rating (crop injury, 0 = no effect, 100 = complete kill) at 500 g/ha ([14]; 500 g ai/ha): 0% | pest or weed control at 125 g/ha ([15]; 125 g ai/ha): 0% | pest or weed control at 500 g/ha ([15]; 500 g ai/ha): 0% | pest or weed control at 125 g/ha ([16]; 125 g ai/ha): 30% | pest or weed control at 500 g/ha ([16]; 500 g ai/ha): 90% | pest or weed control at 125 g/ha ([17]; 125 g ai/ha): 0% | pest or weed control at 500 g/ha ([17]; 500 g ai/ha): 40% | pest or weed control at 125 g/ha ([18]; 125 g ai/ha): 0% | pest or weed control at 500 g/ha ([18]; 500 g ai/ha): 0% | plant injury at 250 g/ha ([19]; 250 g ai/ha): 0% | plant injury at 1000 g/ha ([19]; 1000 g ai/ha): 0% | pest or weed control at 125 g/ha ([20]; 125 g ai/ha): 0% | pest or weed control at 500 g/ha ([20]; 500 g ai/ha): 0%
